Test system: frataxin protein in human normal fibroblast strain WI-38
Test: Western blot of frataxin protein in WI-38 cells cultured with ALA
Type: cell-based
Settings: ALA 2 mM for 2 hours in DMEM without FBS, then 24 hours in DMEM with 10% FBS, compared to Sample 2 (medium without ALA)
Experimental: • (i) Human normal fibroblast strain WI-38 was cultured in Dulbecco's modified Eagle medium (DMEM) comprising 10% fetal bovine serum (FBS) under 5% CO2. (ii) 5-Aminolevulinic acid (ALA) was added at a final concentration of 2 mM to DMEM without FBS, and cells of (i) were cultured in said medium at 37° C. for 2 hours to allow ALA to be incorporated. (iii) Then, the cells were transferred to DMEM containing 10% FBS and cultured at 37° C. for 24 hours. (iv) The cells were collected by trypsin treatment, washed with phosphate buffered saline (PBS), and then suspended in SDS sample buffer (50 mM Tris-HCl, pH6.8, 2% SDS, 2.5%-mercaptoethanol, 10% glycerol, and 0.01% bromophenol blue), and heated at 100° C. for 5 minutes to allow lysis. […] In this Example, the said cell lysate is referred to as “Sample 2.” Samples 1 and 2 were subjected to 12% SDS-polyacrylamide electrophoresis, and Western blot analysis employing an anti-human frataxin antibody (from Santa Cruz Biotechnology, cat. #sc-25820) and an HRP-labeled anti-rabbit IgG secondary antibody (from GE Healthcare, cat. #N[MUT]) was performed by conventional means. […]

Compound: NCC(=O)CCC(=O)O [ALA, 5-aminolevulinic acid]
- amount of frataxin protein (Western blot, FIG. 1): clear increase

— US20160271090A1, “FRATAXIN ENHANCER” (TOKYO UNIVERSITY OF AGRICULTURE, priority 2013, published 2016)
